The Papp A→B is how fast a substance crosses the layer from the apical side. A high value points to fast passage.

Results on 12 compounds are retold here after patent US20250195536A1, “BICYCLOOCTANE KRAS INHIBITORS” (Incyte Corporation, priority 2023, published 2025).

A short description of data set [1]: Caco2 assay (permeability, Papp A-B). In kind it is in vitro ADME. To be noted: human, Caco-2, absorptive direction (A-B), 50 μM test compound, 4% BSA in receiver. Summed up:
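Absorptive (A-B) Papp: 50 μM test compound in HBSS added to apical side of 22-25-day Caco-2 monolayers (TEER 300 Ω·cm^2), receiver buffer containing 4% BSA. After 120 min at 37 °C, 5% CO2, both sides analysed by LCMS; Papp calculated from flux rate normalized to area and donor amount.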

For another data set, the target named is KRAS G12V (Homo sapiens, UniProt P01116, G12V). Description: GDP-GTP exchange assay (KRAS G12V).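 Further: one dagger IC50 up to 100 nM and two daggers above 100 nM up to 1 μM.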 Format: biochemical. To be noted: bodipy-GDP/GppNHp exchange with SOS1; 3 h incubation after GppNHp-SOS1. The essentials:
(§1)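 IC50 came from a four-parameter fit of fluorescence loss (485/520 nm) as SOS1 (150 nM) swapped bodipy-GDP for GppNHp (500 μM) on 2.5 nM KRAS, final concentrations. Compounds were pre-incubated 4 h at r.t. (pH 7.5 Hepes, 10 mM MgCl2); exchange ran 2 h (G12D) or 3 h (G12V).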

Another data set has as its target KRAS G12D (Homo sapiens, UniProt P01116, G12D). The data set can be described thus: GDP-GTP exchange assay (KRAS G12D).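 Further: one dagger IC50 up to 100 nM and two daggers above 100 nM up to 1 μM.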 In kind it is biochemical. To be noted: bodipy-GDP/GppNHp exchange with SOS1; 4 h pre-incubation, 2 h reaction. Summed up:
as §1

Sequence of KRAS G12D (P01116 1-188 isoform P01116-2 G12D): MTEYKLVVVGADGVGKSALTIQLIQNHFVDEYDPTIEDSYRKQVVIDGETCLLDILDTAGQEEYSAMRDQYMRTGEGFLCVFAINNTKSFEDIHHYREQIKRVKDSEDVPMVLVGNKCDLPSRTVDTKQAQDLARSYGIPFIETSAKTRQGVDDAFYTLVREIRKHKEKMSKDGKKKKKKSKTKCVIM
Sequence of KRAS G12V (P01116 1-188 isoform P01116-2 G12V): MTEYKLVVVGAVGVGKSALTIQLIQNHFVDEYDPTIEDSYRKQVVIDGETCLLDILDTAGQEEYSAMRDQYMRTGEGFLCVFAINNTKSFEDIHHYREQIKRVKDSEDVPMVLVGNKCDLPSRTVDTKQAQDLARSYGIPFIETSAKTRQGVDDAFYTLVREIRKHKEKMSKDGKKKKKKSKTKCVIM

Consider `Cc1nc2c(F)c(-c3cccc(Cl)c3Cl)c(CCC#N)cc2c2c1cc([C@H]1[C@H]3C[C@H](CN(c4ccn5nccc5c4)C3)N1C(=O)C1CC1)n2[C@H]1[C@H]2CN[C@@H]1C2` (atropisomer, axis not shown; (Ra)) [Example 71, 3-((Ra)-1-((1R,4R,5S)-2-azabicyclo[2.1.1]hexan-5-yl)-2-((1S,5R,7R)-6-(cyclopropanecarbonyl)-3-(pyrazolo[1,5-a]pyridin-5-yl)-3,6-diazabicyclo[3.2.1]octan-7-yl)-7-(2,3-dichlorophenyl)-6-fluoro-4-methyl-1H-pyrrolo[3,2-c]quinolin-8-yl)propanenitrile], for which the Papp A→B at 120 min, 50 μM in data set [1] was ≤ 0.5 ×10⁻⁶ cm/s. Moreover, the “G12V_exchange (KRAS_G12V exchange assay IC50)” value (shortened to “G12V_exchange”) on KRAS G12V was “†”. In addition, at KRAS G12D, the “G12D_exchange (KRAS_G12D exchange assay IC50)” value (from here on “G12D_exchange”) was “†”.

Take `Cc1nc2c(F)c(-c3cccc(Cl)c3Cl)c(CCC#N)cc2c2c1cc([C@H]1[C@H]3C[C@H](CN(c4ccn5ncnc5c4)C3)N1C(=O)C1CC1)n2[C@H]1[C@H]2CN[C@@H]1C2` (atropisomer, axis not shown; (Ra)) [Example 72, 3-((Ra)-2-((1S,5R,7R)-3-([1,2,4]triazolo[1,5-a]pyridin-7-yl)-6-(cyclopropanecarbonyl)-3,6-diazabicyclo[3.2.1]octan-7-yl)-1-((1R,4R,5S)-2-azabicyclo[2.1.1]hexan-5-yl)-7-(2,3-dichlorophenyl)-6-fluoro-4-methyl-1H-pyrrolo[3,2-c]quinolin-8-yl) propanenitrile]: the Papp A→B at 120 min, 50 μM in data set [1] is ≤ 0.5 ×10⁻⁶ cm/s. Besides, on KRAS G12V, the “G12V_exchange” value was “†”. The “G12D_exchange” value on KRAS G12D is recorded as “†”.

Consider `Cc1nc2c(F)c(-c3cccc(Cl)c3Cl)c(CCC#N)cc2c2c1cc([C@H]1[C@H]3C[C@H](CN(c4ccoc(=O)c4)C3)N1C(=O)C1CC1)n2[C@H]1[C@H]2CN[C@@H]1C2` (atropisomer, axis not shown; (Ra)) [Example 73, 3-((Ra)-1-((1R,4R,5S)-2-azabicyclo[2.1.1]hexan-5-yl)-2-((1S,5R,7R)-6-(cyclopropanecarbonyl)-3-(2-oxo-2H-pyran-4-yl)-3,6-diazabicyclo[3.2.1]octan-7-yl)-7-(2,3-dichlorophenyl)-6-fluoro-4-methyl-1H-pyrrolo[3,2-c]quinolin-8-yl)propanenitrile], for which, in data set [1], the Papp A→B at 120 min, 50 μM is ≤ 0.5 ×10⁻⁶ cm/s. The “G12V_exchange” value on KRAS G12V was “†”. Besides, the “G12D_exchange” value on KRAS G12D is on record as “†”.

As to `Cc1nc2c(F)c(-c3cccc(Cl)c3Cl)c(CCC#N)cc2c2c1cc([C@H]1[C@H]3C[C@H](CN(c4ccnc(Br)c4)C3)N1C(=O)C1CC1)n2[C@H]1[C@H]2CN[C@@H]1C2` (atropisomer, axis not shown; (Ra)) [Example 74, 3-((Ra)-1-((1R,4R,5S)-2-azabicyclo[2.1.1]hexan-5-yl)-2-((1S,5R,7R)-3-(2-bromopyridin-4-yl)-6-(cyclopropanecarbonyl)-3,6-diazabicyclo[3.2.1]octan-7-yl)-7-(2,3-dichlorophenyl)-6-fluoro-4-methyl-1H-pyrrolo[3,2-c]quinolin-8-yl)propanenitrile], the Papp A→B at 120 min, 50 μM in data set [1] is ≤ 0.5 ×10⁻⁶ cm/s. On KRAS G12V, the “G12V_exchange” value was “†”. In addition, the “G12D_exchange” value at KRAS G12D was “†”.

Turning to `Cc1c(N2C[C@@H]3C[C@H](C2)N(C(=O)C2CC2)[C@H]3c2cc3c(C)nc4c(F)c(-c5cccc(Cl)c5Cl)c(CCC#N)cc4c3n2[C@H]2[C@H]3CN[C@@H]2C3)ccnc1F` (atropisomer, axis not shown; (Ra)) [Example 76, 3-((Ra)-1-((1R,4R,5S)-2-azabicyclo[2.1.1]hexan-5-yl)-2-((1S,5R,7R)-6-(cyclopropanecarbonyl)-3-(2-fluoro-3-methylpyridin-4-yl)-3,6-diazabicyclo[3.2.1]octan-7-yl)-7-(2,3-dichlorophenyl)-6-fluoro-4-methyl-1H-pyrrolo[3,2-c]quinolin-8-yl)propanenitrile], in data set [1], the Papp A→B at 120 min, 50 μM lay within 0.5 to 1 ×10⁻⁶ cm/s. The “G12V_exchange” value on KRAS G12V is reported as “†”. Also, the “G12D_exchange” value on KRAS G12D was “†”.

With `COc1cc(N2C[C@@H]3C[C@H](C2)N(C(=O)C2CC2)[C@H]3c2cc3c(C)nc4c(F)c(-c5cccc(Cl)c5Cl)c(CCC#N)cc4c3n2[C@H]2[C@H]3CN[C@@H]2C3)cc(C)n1` (atropisomer, axis not shown; (Ra)) [Example 78, 3-((Ra)-1-((1R,4R,5S)-2-azabicyclo[2.1.1]hexan-5-yl)-2-((1S,5R,7R)-6-(cyclopropanecarbonyl)-3-(2-methoxy-6-methylpyridin-4-yl)-3,6-diazabicyclo[3.2.1]octan-7-yl)-7-(2,3-dichlorophenyl)-6-fluoro-4-methyl-1H-pyrrolo[3,2-c]quinolin-8-yl)propanenitrile], the Papp A→B at 120 min, 50 μM in data set [1] was ≤ 0.5 ×10⁻⁶ cm/s. Moreover, the “G12V_exchange” value on KRAS G12V is given as “†”. In addition, the “G12D_exchange” value on KRAS G12D is recorded as “†”.

Turning to `Cc1cc(N2C[C@@H]3C[C@H](C2)N(C(=O)C2CC2)[C@H]3c2cc3c(C)nc4c(F)c(-c5cccc(Cl)c5Cl)c(CCC#N)cc4c3n2[C@H]2[C@H]3CN[C@@H]2C3)cc(F)n1` (atropisomer, axis not shown; (Ra)) [Example 79, 3-((Ra)-1-((1R,4R,5S)-2-azabicyclo[2.1.1]hexan-5-yl)-2-((1S,5R,7R)-6-(cyclopropanecarbonyl)-3-(2-fluoro-6-methylpyridin-4-yl)-3,6-diazabicyclo[3.2.1]octan-7-yl)-7-(2,3-dichlorophenyl)-6-fluoro-4-methyl-1H-pyrrolo[3,2-c]quinolin-8-yl)propanenitrile], in data set [1], the apical-to-basolateral permeability (Papp A→B) at 120 min, 50 μM was ≤ 0.5 ×10⁻⁶ cm/s. At KRAS G12V, the “G12V_exchange” value was “†”. In addition, the “G12D_exchange” value on KRAS G12D is given as “†”.

With `Cc1cc(N2C[C@@H]3C[C@H](C2)N(C(=O)C2CC2)[C@H]3c2cc3c(C)nc4c(F)c(-c5cccc(Cl)c5Cl)c(CCC#N)cc4c3n2[C@H]2[C@H]3CN[C@@H]2C3)cc(=O)o1` (atropisomer, axis not shown; (Ra)) [Example 80], in data set [1], the Papp A→B at 120 min, 50 μM is ≤ 0.5 ×10⁻⁶ cm/s. Also, the “G12V_exchange” value at KRAS G12V is “†”. On KRAS G12D, the “G12D_exchange” value is reported as “†”.

With `CCOc1cc(N2C[C@@H]3C[C@H](C2)N(C(=O)C2CC2)[C@H]3c2cc3c(C)nc4c(F)c(-c5cccc(Cl)c5Cl)c(CCC#N)cc4c3n2[C@H]2[C@H]3CN[C@@H]2C3)ccn1` (atropisomer, axis not shown; (Ra)) [Example 81, 3-((Ra)-1-((1R,4R,5S)-2-azabicyclo[2.1.1]hexan-5-yl)-2-((1S,5R,7R)-6-(cyclopropanecarbonyl)-3-(2-ethoxypyridin-4-yl)-3,6-diazabicyclo[3.2.1]octan-7-yl)-7-(2,3-dichlorophenyl)-6-fluoro-4-methyl-1H-pyrrolo[3,2-c]quinolin-8-yl)propanenitrile], the Papp A→B at 120 min, 50 μM in data set [1] was ≤ 0.5 ×10⁻⁶ cm/s. Further, the “G12V_exchange” value at KRAS G12V was “†”. In addition, at KRAS G12D, the “G12D_exchange” value is recorded as “†”.

`COCCOc1cc(N2C[C@@H]3C[C@H](C2)N(C(=O)C2CC2)[C@H]3c2cc3c(C)nc4c(F)c(-c5cccc(Cl)c5Cl)c(CCC#N)cc4c3n2[C@H]2[C@H]3CN[C@@H]2C3)ccn1` (atropisomer, axis not shown; (Ra)) [Example 83, 3-((Ra)-1-((1R,4R,5S)-2-azabicyclo[2.1.1]hexan-5-yl)-2-((1S,5R,7R)-6-(cyclopropanecarbonyl)-3-(2-(2-methoxyethoxy)pyridin-4-yl)-3,6-diazabicyclo[3.2.1]octan-7-yl)-7-(2,3-dichlorophenyl)-6-fluoro-4-methyl-1H-pyrrolo[3,2-c]quinolin-8-yl)propanenitrile]: in data set [1], the Papp A→B at 120 min, 50 μM was ≤ 0.5 ×10⁻⁶ cm/s. Further, the “G12V_exchange” value at KRAS G12V was “†”. For the same compound, at KRAS G12D, the “G12D_exchange” value was “†”.

On to `Cc1cc(N2C[C@@H]3C[C@H](C2)N(C(=O)C2CC2)[C@H]3c2cc3c(C)nc4c(F)c(-c5cccc(Cl)c5Cl)c(CCC#N)cc4c3n2[C@H]2[C@H]3CN[C@@H]2C3)cc(C(F)F)n1` (atropisomer, axis not shown; (Ra)) [Example 84, 3-((Ra)-1-((1R,4R,5S)-2-azabicyclo[2.1.1]hexan-5-yl)-2-((1S,5R,7R)-6-(cyclopropanecarbonyl)-3-(2-(difluoromethyl)-6-methylpyridin-4-yl)-3,6-diazabicyclo[3.2.1]octan-7-yl)-7-(2,3-dichlorophenyl)-6-fluoro-4-methyl-1H-pyrrolo[3,2-c]quinolin-8-yl)propanenitrile], for which the Papp A→B at 120 min, 50 μM in data set [1] is ≤ 0.5 ×10⁻⁶ cm/s. Also, the “G12V_exchange” value on KRAS G12V is on record as “†”. Besides, on KRAS G12D, the “G12D_exchange” value is “†”.

Consider `Cc1nc2c(F)c(-c3cccc(Cl)c3Cl)c(CCC#N)cc2c2c1cc([C@H]1[C@H]3C[C@H](CN(c4cc(C(F)F)c(F)cn4)C3)N1C(=O)C1CC1)n2[C@H]1[C@H]2CN[C@@H]1C2` (atropisomer, axis not shown; (Ra)) [Example 85, 3-((Ra)-1-((1R,4R,5S)-2-azabicyclo[2.1.1]hexan-5-yl)-2-((1S,5R,7R)-6-(cyclopropanecarbonyl)-3-(4-(difluoromethyl)-5-fluoropyridin-2-yl)-3,6-diazabicyclo[3.2.1]octan-7-yl)-7-(2,3-dichlorophenyl)-6-fluoro-4-methyl-1H-pyrrolo[3,2-c]quinolin-8-yl)propanenitrile], for which the Papp A→B at 120 min, 50 μM in data set [1] is ≤ 0.5 ×10⁻⁶ cm/s. Further, the “G12V_exchange” value at KRAS G12V is reported as “†”. Also, the “G12D_exchange” value at KRAS G12D is reported as “†”.
